From ChEMBL document CHEMBL3885881, “DrugMatrix”

Organism: Rattus norvegicus
Assay: DrugMatrix - Regimen: Daily Repeat
Assay type: toxicity, organism-based, Sprague-Dawley
Parameters: regimen Daily Repeat, gender Male, age 6-8 weeks
Conditions: in vivo, po, route oral GAVAGE; for ALBUMIN / ALKALINE PHOSPHATASE / ASPARTATE AMINOTRANSFERASE / BLOOD UREA NITROGEN / CARBON DIOXIDE / CHLORIDE / CHOLESTEROL / CREATINE PHOSPHOKINASE / CREATININE / GLUCOSE / LACTATE DEHYDROGENASE / LIPASE / PHOSPHORUS / POTASSIUM / SODIUM / TOTAL BILIRUBIN / TOTAL PROTEIN / URIC ACID / ALANINE AMINOTRANSFERASE: tissue Plasma; for ABSOLUTE BASOPHIL / ABSOLUTE EOSINOPHIL / ABSOLUTE LYMPHOCYTE / ABSOLUTE MONOCYTE / ABSOLUTE SEGMENTED NEUTROPHIL / BASOPHIL / EOSINOPHIL / ERYTHROCYTE COUNT / HEMATOCRIT / HEMOGLOBIN / LEUKOCYTE COUNT / LYMPHOCYTE / MEAN CORPUSCULAR HEMOGLOBIN / MEAN CORPUSCULAR HEMOGLOBIN CONCENTRATION / MEAN CORPUSCULAR VOLUME / MONOCYTE / NEUTROPHIL / NUCLEATED RED BLOOD CELLS / PLATELET COUNT: tissue Blood
[1] = 54 mg/kg, 120 h, dose level M1, time 5 day, vehicle 100 % WATER
[2] = 160 mg/kg, 72 h, dose level High, time 3 day, […]
[3] = 160 mg/kg, 120 h, dose level High, time 5 day, […]

SMILES: Cn1cnc([N+](=O)[O-])c1Sc1ncnc2nc[nH]c12 [AZATHIOPRINE]
- ALBUMIN [1]: 4.6 G/DL
- ALKALINE PHOSPHATASE [1]: 184.33 u/L
- ASPARTATE AMINOTRANSFERASE [1]: 65.33 u/L
- BLOOD UREA NITROGEN [1]: 14 mg/dL
- CARBON DIOXIDE [1]: 33 mmol/L
- CHLORIDE [1]: 96.33 MEQ/L
- CHOLESTEROL [1]: 91.33 mg/dL
- CREATINE PHOSPHOKINASE [1]: 188.33 u/L
- CREATININE [1]: 0.26 mg/dL
- GLUCOSE [1]: 159.67 mg/dL
- LACTATE DEHYDROGENASE [1]: 98.33 u/L
- LIPASE [1]: 14 u/L
- PHOSPHORUS [1]: 9.43 mg/dL
- POTASSIUM [1]: 5.71 MEQ/L
- SODIUM [1]: 143.23 MEQ/L
- TOTAL BILIRUBIN [1]: 0.13 mg/dL
- TOTAL PROTEIN [1]: 6.97 G/DL
- URIC ACID [1]: 0.23 mg/dL
- ABSOLUTE BASOPHIL [2]: 0 CELLS/uL
- ABSOLUTE EOSINOPHIL [2]: 0 CELLS/uL
- ABSOLUTE LYMPHOCYTE [2]: 4093.67 CELLS/uL
- ABSOLUTE MONOCYTE [2]: 37.33 CELLS/uL
- ABSOLUTE SEGMENTED NEUTROPHIL [2]: 535.67 CELLS/uL
- BASOPHIL [2]: 0%
- EOSINOPHIL [2]: 0%
- ERYTHROCYTE COUNT [2]: 5.12 x10E6/uL
- HEMATOCRIT [2]: 34.5%
- HEMOGLOBIN [2]: 13.07 G/DL
- LEUKOCYTE COUNT [2]: 4.67 x10E3/uL
- LYMPHOCYTE [2]: 87%
- MEAN CORPUSCULAR HEMOGLOBIN [2]: 25.6 pg
- MEAN CORPUSCULAR HEMOGLOBIN CONCENTRATION [2]: 37.87 G/DL
- MEAN CORPUSCULAR VOLUME [2]: 67.47 fL
- MONOCYTE [2]: 0.67%
- NEUTROPHIL [2]: 12.33%
- NUCLEATED RED BLOOD CELLS [2]: 0 /100WBC
- PLATELET COUNT [2]: 1028 x10E3/uL
- ALANINE AMINOTRANSFERASE [2]: 39.33 u/L
- ALBUMIN [2]: 3.87 G/DL
- ALKALINE PHOSPHATASE [2]: 207.67 u/L
- ASPARTATE AMINOTRANSFERASE [2]: 81.33 u/L
- BLOOD UREA NITROGEN [2]: 10.33 mg/dL
- CARBON DIOXIDE [2]: 36 mmol/L
- CHLORIDE [2]: 107.67 MEQ/L
- CHOLESTEROL [2]: 84.67 mg/dL
- CREATINE PHOSPHOKINASE [2]: 296.67 u/L
- CREATININE [2]: 0.13 mg/dL
- GLUCOSE [2]: 192.33 mg/dL
- LACTATE DEHYDROGENASE [2]: 87.67 u/L
- LIPASE [2]: 11.33 u/L
- PHOSPHORUS [2]: 7.6 mg/dL
- POTASSIUM [2]: 5.08 MEQ/L
- SODIUM [2]: 138.17 MEQ/L
- TOTAL BILIRUBIN [2]: 0.13 mg/dL
- TOTAL PROTEIN [2]: 5.63 G/DL
- URIC ACID [2]: 0.3 mg/dL
- ABSOLUTE BASOPHIL [3]: 0 CELLS/uL
- ABSOLUTE EOSINOPHIL [3]: 0 CELLS/uL
- ABSOLUTE LYMPHOCYTE [3]: 1710 CELLS/uL
- ABSOLUTE MONOCYTE [3]: 38 CELLS/uL
- ABSOLUTE SEGMENTED NEUTROPHIL [3]: 152 CELLS/uL
- BASOPHIL [3]: 0%
- EOSINOPHIL [3]: 0%
- ERYTHROCYTE COUNT [3]: 7.48 x10E6/uL
- HEMATOCRIT [3]: 45.7%
- HEMOGLOBIN [3]: 15.7 G/DL
- LEUKOCYTE COUNT [3]: 1.9 x10E3/uL
- LYMPHOCYTE [3]: 90%
- MEAN CORPUSCULAR HEMOGLOBIN [3]: 21 pg
- MEAN CORPUSCULAR HEMOGLOBIN CONCENTRATION [3]: 34.4 G/DL
- MEAN CORPUSCULAR VOLUME [3]: 61.1 fL
- MONOCYTE [3]: 2%
- NEUTROPHIL [3]: 8%
- NUCLEATED RED BLOOD CELLS [3]: 0 /100WBC
- PLATELET COUNT [3]: 666 x10E3/uL
- ALANINE AMINOTRANSFERASE [3]: 237 u/L
- ALBUMIN [3]: 2.8 G/DL
- ALKALINE PHOSPHATASE [3]: 281 u/L
- ASPARTATE AMINOTRANSFERASE [3]: 835 u/L
- BLOOD UREA NITROGEN [3]: 15 mg/dL
- CARBON DIOXIDE [3]: 36 mmol/L
- CHLORIDE [3]: 106 MEQ/L
- CHOLESTEROL [3]: 13 mg/dL
- CREATINE PHOSPHOKINASE [3]: 348 u/L
- CREATININE [3]: 0.38 mg/dL
- GLUCOSE [3]: 192 mg/dL
- LACTATE DEHYDROGENASE [3]: 280 u/L
- LIPASE [3]: 10 u/L
- PHOSPHORUS [3]: 6.3 mg/dL
- POTASSIUM [3]: 4.73 MEQ/L
- SODIUM [3]: 147 MEQ/L
- TOTAL BILIRUBIN [3]: 0.2 mg/dL
- TOTAL PROTEIN [3]: 3.4 G/DL
- URIC ACID [3]: 0.2 mg/dL
